Series [1] is described as follows: in vitro. Also noted: MTT viability assay on human PBMCs, absorbance at 570 nm. The note with it: human, pbmc; 24 h exposure, MTT; read-out: IC50. How it is done: (§1) The cytotoxicity assay was performed on Human Peripheral Blood Mononuclear cells (H-PBMC, Himedia, India) according to the manufacturer’s instructions. The H-PBMC (40,000 cells/well in 100 μL volume) suspension in RPMI-1640 media (containing 10% fetal bovine serum and 50 U/mL antibiotic-antimycotic solution) (Himedia^, India) was dispensed into 96-well polystyrene tissue culture-treated flat-bottom plates (Corning, U.S.). The plates were incubated for 48 h in a CO2 (5%) incubator at 37°C. After 48 h, the compounds (Ar1-Ar24) were added to the plates in a fresh medium and again incubated for 24 h in a CO2 (5%) incubator at 37°C. Next, MTT (1 mg/mL) was added to the wells, followed by incubation for 4–5 h. The formazan crystals were solubilized using a solubilizing solution (40% (v/v) dimethyl formamide in 2% (v/v) glacial acetic acid added with 16% sodium dodecyl sulfate), and the absorbance (OD570nm) was measured. Considering the lack of effect of EPIs on eukaryotic Ca^2+ ion channels, we further evaluated cytotoxicity on Human Peripheral Blood Mononuclear cells (H-PBMC). […] Our front runners, Ar1, Ar5, and Ar11, had extremely low toxicity toward H-PBMCs. […] Taken together, these experiments provide substantial evidence that Ar5 is non-toxic in vitro and can be used for therapeutic applications in vivo.

Series [2] can be described thus: in vitro. The note with it: human, pbmc; read-out: IC50. Also noted: species or system H-PBMC; MTT viability assay, absorbance at 570 nm, cytotoxicity IC50. The procedure:
as §1

Series [3] concerns T1, Pseudomonas aeruginosa ATCC BAA-2795.
T1 construct: ATCC BAA-2795
Kind of series: microbe, parasite or virus in culture. Also noted: MIC of antibiotic alone from antibiotic potentiation assay against XDR strain. Particulars: ATCC BAA-2782 / ATCC BAA-2795, read-out: MIC (μg/mL) / Klebsiella pneumoniae ATCC BAA-2782 / Pseudomonas aeruginosa ATCC BAA-2795. From the text: (§2) We further tested the potentiation of Ar1, Ar5, Ar11, and Ar18 to RND efflux pump substrates (ciprofloxacin, levofloxacin, tetracycline, tigecycline, erythromycin, piperacillin, and chloramphenicol) against XDR E. coli ATCC BAA-2774 (expressing AcrAB-TolC), K. pneumoniae ATCC BAA-2782 (expressing AcrAB-TolC), and P. aeruginosa ATCC BAA-2795 (expressing MexAB-OprM). […] The fact that compounds potentiate a given antibiotic against efflux pump over-expressed strain but not deletion provides substantial evidence that the inhibition effect is RND efflux pump specific targeting AcrAB and MexAB efflux systems. The antibiotics, chemicals, and dyes were purchased from Sigma-Aldrich Chemical Co. (St. Louis, MO, United States) unless stated otherwise. The E. coli wild-type K-12 AG100 (argE3 thi-1 rpsLxylmtlΔ(gal-uvrB)supE44) and its derivatives, AcrB over-expressing AG100tet and AcrAB knockout AG100A (ΔacrAB::Tn903 Kan^r) were used in the study. AG100tet is derived from AG100 by gradual stepwise exposure to increased concentrations of tetracycline and was grown in the presence of 8 μg/mL tetracycline to maintain efflux pump over-expression. AG100A was grown in the presence of 100 μg/mL kanamycin to preserve the transposon. The P. aeruginosa ATCC BAA-2795 over-expressing MexAB-OprM (Chromachemie, India), and PAO750 (PAO1: ΔmexAB-oprM, ΔmexCD-oprJ, ΔmexEF-oprN, ΔmexXY) were also used in the study. The strains P. aeruginosa ATCC 27853, P. aeruginosa ATCC 15692 (PAO1), K. Pneumoniae ATCC BAA-2782, K. Pneumoniae ATCC 700603, and E. coli ATCC BAA-2774, were purchased from Himedia, India. All the strains were grown in BBL Cation-adjusted Mueller Hinton Broth (CA-MHB; BD, U.S.) at 37°C under standard conditions. Mueller Hinton Agar (MHA; Himedia, India) plates were used for bacterial viability counting.

For series [4], the system named is T2, Escherichia coli ATCC BAA-2774.
T2 construct: ATCC BAA-2774
As to the kind of experiment: microbe, parasite or virus in culture. Further details: MIC of antibiotic alone from antibiotic potentiation assay against XDR strain. Particulars: ATCC BAA-2774 / ATCC BAA-2782, read-out: MIC (μg/mL) / Klebsiella pneumoniae ATCC BAA-2782 / Escherichia coli ATCC BAA-2774.
From the text: as §2

Series [5] relates to T3, Klebsiella pneumoniae ATCC BAA-2782.
T3 construct: ATCC BAA-2782
Kind of series: microbe, parasite or virus in culture. Particulars: ATCCBAA2782, read-out: MIC (μg/mL) / Klebsiella pneumoniae ATCC BAA-2782. Also noted: MIC of antibiotic alone from antibiotic potentiation assay against XDR strain.
From the text: as §2

Each structure is given as a SMILES string. Converted amounts (≈) assume the structure as drawn. Where two headings read alike, the source gives them in different places.

In the case of `COC(=O)c1cc(-c2ccc(F)cc2)cn1Cc1ccc(F)cc1` [Ar1], the CC50 at 24 h in “in vitro [1]” and in the series “in vitro [2]” was 256 µg/mL (≈ 782 µM) in each case.
Turning to `CCOC(=O)c1cc(-c2ccc(F)cc2F)cn1Cc1ccc(F)cc1` [Ar18], the CC50 at 24 h in “in vitro [1]” and in the series “in vitro [2]” was more than 128 µg/mL in each case.
On to `CCOC(=O)c1cc(-c2ccc(C#N)cc2)cn1Cc1ccc(F)cc1` [Ar21], for which the CC50 at 24 h in “in vitro [1]” and in the series “in vitro [2]” was 256 µg/mL (≈ 735 µM) each time.
Consider `CCOC(=O)c1cc(-c2ccc(F)cn2)cn1Cc1ccc(F)cc1` [Ar19], for which the CC50 at 24 h in “in vitro [1]” and in “in vitro [2]” was more than 128 µg/mL in each case.
As for `CCOC(=O)c1cc(-c2ccc(C(F)(F)F)cc2)cn1Cc1ccc(F)cc1` [Ar16], the CC50 at 24 h in “in vitro [1]” and in “in vitro [2]” was 256 µg/mL (≈ 654 µM) throughout.
For the compound `CCOC(=O)c1cc(-c2ccc(F)cc2)c[nH]1` [Ar17], the CC50 at 24 h in “in vitro [1]” and in “in vitro [2]” was 256 µg/mL (≈ 1100 µM) each time.
Take `C[C@H]1COc2c(N3CCN(C)CC3)c(F)cc3c(=O)c(C(=O)O)cn1c23` [Levofloxacin]: the MIC was determined as 256 µg/mL in series [3], 32 µg/mL in series [4] and 32 µg/mL in series [5].
Turning to `CN(C)c1cc(NC(=O)CNC(C)(C)C)c(O)c2c1C[C@H]1C[C@H]3[C@H](N(C)C)C(O)=C(C(N)=O)C(=O)[C@@]3(O)C(O)=C1C2=O` [Tigecycline], the figures for the MIC in series [3], in series [4] and in series [5] were 256 µg/mL, 128 µg/mL and 64 µg/mL, respectively.
As to `CN(C)[C@@H]1C(O)=C(C(N)=O)C(=O)[C@@]2(O)C(O)=C3C(=O)c4c(O)cccc4[C@@](C)(O)[C@H]3C[C@@H]12` [Tetracycline], the results for the MIC in series [3], in series [4] and in series [5] were 32 µg/mL, 256 µg/mL and 4 µg/mL, respectively.
As for `CCOC(=O)c1cc(-c2ccc(C(F)(F)F)cc2)cn1Cc1ccc(C)cc1` [Ar24], the CC50 at 24 h in “in vitro [1]” and in “in vitro [2]” was 256 µg/mL (≈ 661 µM) each time.
For `COC(=O)c1cc(-c2cccc(NC(C)=O)c2)cn1Cc1ccc(C)cc1` [Ar11], the CC50 at 24 h in the series “in vitro [1]” and in “in vitro [2]” was more than 256 µg/mL in each case.
For the compound `O=C(N[C@H](CO)[C@H](O)c1ccc([N+](=O)[O-])cc1)C(Cl)Cl` [Chloramphenicol], the MIC came out at 256 µg/mL in series [3], 32 µg/mL in series [4] and 16 µg/mL in series [5].
As to `CCOC(=O)c1cc(-c2cccc(CO)c2)cn1Cc1ccc(F)cc1` [Ar20], the CC50 at 24 h in “in vitro [1]” and in the series “in vitro [2]” was more than 128 µg/mL each time.
For `O=C(O)c1cn(C2CC2)c2cc(N3CCNCC3)c(F)cc2c1=O` [Ciprofloxacin], the figures for the MIC in series [3], in series [4] and in series [5] were 256 µg/mL, 256 µg/mL and 128 µg/mL, respectively.
In the case of `CCN1CCN(C(=O)N[C@@H](C(=O)N[C@@H]2C(=O)N3[C@@H]2SC(C)(C)[C@@H]3C(=O)O)c2ccccc2)C(=O)C1=O` [Piperacillin], the values for the MIC in series [3], in series [4] and in series [5] were 256 µg/mL, 512 µg/mL and 1020 µg/mL, respectively.
In the case of `CC[C@H]1OC(=O)[C@H](C)[C@@H](O[C@H]2C[C@@](C)(OC)[C@@H](O)[C@H](C)O2)[C@H](C)[C@@H](O[C@@H]2O[C@H](C)C[C@H](N(C)C)[C@H]2O)[C@](C)(O)C[C@@H](C)C(=O)[C@H](C)[C@@H](O)[C@]1(C)O` [Erythromycin], the MIC in series [3] is 512 µg/mL; in series [4], 512 µg/mL; in series [5] it was 128 µg/mL.
